Holding throughout (assay): KINOMEscan (ScanMAX) kinase profiling
Type in all cases: binding

The target in experiment [1] is T1, panel of 468 kinases (Homo sapiens, UniProt P36896).
T1 construct: purchased KINOMEscan (ScanMAX) service
T1 sequence (P36896 24-505): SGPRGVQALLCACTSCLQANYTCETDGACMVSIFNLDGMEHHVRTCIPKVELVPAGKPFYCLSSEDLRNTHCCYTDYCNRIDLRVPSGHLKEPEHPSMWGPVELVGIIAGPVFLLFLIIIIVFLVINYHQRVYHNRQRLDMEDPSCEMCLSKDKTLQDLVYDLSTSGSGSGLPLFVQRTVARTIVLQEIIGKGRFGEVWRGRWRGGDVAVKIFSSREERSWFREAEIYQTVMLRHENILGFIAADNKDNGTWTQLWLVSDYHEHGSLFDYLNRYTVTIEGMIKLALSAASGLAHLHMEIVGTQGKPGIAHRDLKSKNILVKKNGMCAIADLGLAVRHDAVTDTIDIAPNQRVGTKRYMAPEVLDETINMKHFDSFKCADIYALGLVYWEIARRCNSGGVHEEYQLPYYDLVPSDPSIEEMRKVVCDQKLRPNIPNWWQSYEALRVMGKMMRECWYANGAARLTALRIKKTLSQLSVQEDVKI
The note with it: ACVR1B; 1 μM; read-out: % control.

Experiment [2] addresses T2, panel of 468 kinases (Homo sapiens, UniProt P08069).
T2 construct: purchased KINOMEscan (ScanMAX) service
To be noted: IGF1R; 1 μM; read-out: % control.

Experiment [3] addresses T3, panel of 468 kinases (Homo sapiens, UniProt Q9NRH2).
T3 construct: purchased KINOMEscan (ScanMAX) service
T3 sequence (Q9NRH2 1-765): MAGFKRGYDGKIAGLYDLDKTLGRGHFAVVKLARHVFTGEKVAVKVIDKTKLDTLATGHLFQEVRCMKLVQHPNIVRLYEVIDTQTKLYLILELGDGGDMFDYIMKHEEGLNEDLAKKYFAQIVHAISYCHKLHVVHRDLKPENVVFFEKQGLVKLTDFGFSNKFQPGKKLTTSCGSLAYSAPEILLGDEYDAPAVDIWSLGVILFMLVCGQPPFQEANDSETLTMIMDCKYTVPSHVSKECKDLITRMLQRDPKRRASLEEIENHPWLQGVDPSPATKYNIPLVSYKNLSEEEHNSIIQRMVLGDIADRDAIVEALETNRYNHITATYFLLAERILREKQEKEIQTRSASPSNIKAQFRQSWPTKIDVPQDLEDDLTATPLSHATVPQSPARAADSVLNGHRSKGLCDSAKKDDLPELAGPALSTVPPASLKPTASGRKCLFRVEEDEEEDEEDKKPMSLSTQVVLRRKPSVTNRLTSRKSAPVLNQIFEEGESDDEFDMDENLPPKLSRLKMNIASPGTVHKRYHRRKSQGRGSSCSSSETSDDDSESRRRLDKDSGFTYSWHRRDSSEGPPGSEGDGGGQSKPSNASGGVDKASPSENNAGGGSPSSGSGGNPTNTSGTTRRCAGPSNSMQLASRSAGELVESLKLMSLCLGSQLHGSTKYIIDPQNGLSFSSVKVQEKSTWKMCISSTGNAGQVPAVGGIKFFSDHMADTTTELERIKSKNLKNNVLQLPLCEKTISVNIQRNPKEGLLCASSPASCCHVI
To be noted: SNRK; 1 μM; read-out: % control.

The target of experiment [4] is T4, panel of 468 kinases (Homo sapiens, UniProt Q5VT25).
T4 construct: purchased KINOMEscan (ScanMAX) service
To be noted: MRCKA; 1 μM; read-out: % control.

Experiment [5] addresses T5, panel of 468 kinases (Homo sapiens, UniProt P51957).
T5 construct: purchased KINOMEscan (ScanMAX) service
To be noted: NEK4; 1 μM; read-out: % control.

The target of experiment [6] is T6, panel of 468 kinases (Homo sapiens, UniProt P53779).
T6 construct: purchased KINOMEscan (ScanMAX) service
To be noted: JNK3; 1 μM; read-out: % control.

T5 sequence (P51957 whole entry): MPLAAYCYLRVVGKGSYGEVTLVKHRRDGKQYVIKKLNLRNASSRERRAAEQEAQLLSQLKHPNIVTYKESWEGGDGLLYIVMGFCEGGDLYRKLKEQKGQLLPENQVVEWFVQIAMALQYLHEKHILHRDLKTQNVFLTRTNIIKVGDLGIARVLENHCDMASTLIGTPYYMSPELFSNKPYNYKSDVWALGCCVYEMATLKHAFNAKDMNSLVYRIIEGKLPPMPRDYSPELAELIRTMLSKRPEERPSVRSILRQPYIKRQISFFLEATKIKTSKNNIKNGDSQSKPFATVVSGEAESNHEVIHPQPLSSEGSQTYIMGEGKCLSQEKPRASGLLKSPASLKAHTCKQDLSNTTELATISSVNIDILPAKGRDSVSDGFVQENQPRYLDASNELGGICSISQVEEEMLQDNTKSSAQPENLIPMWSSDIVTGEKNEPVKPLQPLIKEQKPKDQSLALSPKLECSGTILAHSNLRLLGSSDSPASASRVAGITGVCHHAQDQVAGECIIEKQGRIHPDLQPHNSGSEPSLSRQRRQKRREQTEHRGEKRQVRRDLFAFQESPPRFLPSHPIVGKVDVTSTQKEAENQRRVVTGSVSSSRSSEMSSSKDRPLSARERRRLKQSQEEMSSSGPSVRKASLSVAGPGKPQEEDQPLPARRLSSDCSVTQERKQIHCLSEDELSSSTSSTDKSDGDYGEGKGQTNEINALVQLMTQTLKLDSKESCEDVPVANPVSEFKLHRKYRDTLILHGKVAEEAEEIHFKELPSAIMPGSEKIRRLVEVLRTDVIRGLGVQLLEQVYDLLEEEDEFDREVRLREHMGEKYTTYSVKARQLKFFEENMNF
T6 sequence (P53779 whole entry): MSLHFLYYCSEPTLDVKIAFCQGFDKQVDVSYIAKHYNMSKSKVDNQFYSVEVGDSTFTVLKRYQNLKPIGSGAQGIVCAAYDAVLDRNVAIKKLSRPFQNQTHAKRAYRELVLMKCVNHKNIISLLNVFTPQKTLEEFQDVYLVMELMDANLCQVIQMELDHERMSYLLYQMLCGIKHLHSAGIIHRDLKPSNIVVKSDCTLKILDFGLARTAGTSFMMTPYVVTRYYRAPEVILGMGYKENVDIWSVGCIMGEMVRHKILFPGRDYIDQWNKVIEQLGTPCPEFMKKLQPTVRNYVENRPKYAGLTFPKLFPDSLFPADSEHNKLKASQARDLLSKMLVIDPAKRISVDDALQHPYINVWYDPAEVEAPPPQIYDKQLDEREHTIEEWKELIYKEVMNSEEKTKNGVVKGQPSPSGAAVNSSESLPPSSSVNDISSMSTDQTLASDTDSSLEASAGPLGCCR
T4 sequence (Q5VT25 whole entry): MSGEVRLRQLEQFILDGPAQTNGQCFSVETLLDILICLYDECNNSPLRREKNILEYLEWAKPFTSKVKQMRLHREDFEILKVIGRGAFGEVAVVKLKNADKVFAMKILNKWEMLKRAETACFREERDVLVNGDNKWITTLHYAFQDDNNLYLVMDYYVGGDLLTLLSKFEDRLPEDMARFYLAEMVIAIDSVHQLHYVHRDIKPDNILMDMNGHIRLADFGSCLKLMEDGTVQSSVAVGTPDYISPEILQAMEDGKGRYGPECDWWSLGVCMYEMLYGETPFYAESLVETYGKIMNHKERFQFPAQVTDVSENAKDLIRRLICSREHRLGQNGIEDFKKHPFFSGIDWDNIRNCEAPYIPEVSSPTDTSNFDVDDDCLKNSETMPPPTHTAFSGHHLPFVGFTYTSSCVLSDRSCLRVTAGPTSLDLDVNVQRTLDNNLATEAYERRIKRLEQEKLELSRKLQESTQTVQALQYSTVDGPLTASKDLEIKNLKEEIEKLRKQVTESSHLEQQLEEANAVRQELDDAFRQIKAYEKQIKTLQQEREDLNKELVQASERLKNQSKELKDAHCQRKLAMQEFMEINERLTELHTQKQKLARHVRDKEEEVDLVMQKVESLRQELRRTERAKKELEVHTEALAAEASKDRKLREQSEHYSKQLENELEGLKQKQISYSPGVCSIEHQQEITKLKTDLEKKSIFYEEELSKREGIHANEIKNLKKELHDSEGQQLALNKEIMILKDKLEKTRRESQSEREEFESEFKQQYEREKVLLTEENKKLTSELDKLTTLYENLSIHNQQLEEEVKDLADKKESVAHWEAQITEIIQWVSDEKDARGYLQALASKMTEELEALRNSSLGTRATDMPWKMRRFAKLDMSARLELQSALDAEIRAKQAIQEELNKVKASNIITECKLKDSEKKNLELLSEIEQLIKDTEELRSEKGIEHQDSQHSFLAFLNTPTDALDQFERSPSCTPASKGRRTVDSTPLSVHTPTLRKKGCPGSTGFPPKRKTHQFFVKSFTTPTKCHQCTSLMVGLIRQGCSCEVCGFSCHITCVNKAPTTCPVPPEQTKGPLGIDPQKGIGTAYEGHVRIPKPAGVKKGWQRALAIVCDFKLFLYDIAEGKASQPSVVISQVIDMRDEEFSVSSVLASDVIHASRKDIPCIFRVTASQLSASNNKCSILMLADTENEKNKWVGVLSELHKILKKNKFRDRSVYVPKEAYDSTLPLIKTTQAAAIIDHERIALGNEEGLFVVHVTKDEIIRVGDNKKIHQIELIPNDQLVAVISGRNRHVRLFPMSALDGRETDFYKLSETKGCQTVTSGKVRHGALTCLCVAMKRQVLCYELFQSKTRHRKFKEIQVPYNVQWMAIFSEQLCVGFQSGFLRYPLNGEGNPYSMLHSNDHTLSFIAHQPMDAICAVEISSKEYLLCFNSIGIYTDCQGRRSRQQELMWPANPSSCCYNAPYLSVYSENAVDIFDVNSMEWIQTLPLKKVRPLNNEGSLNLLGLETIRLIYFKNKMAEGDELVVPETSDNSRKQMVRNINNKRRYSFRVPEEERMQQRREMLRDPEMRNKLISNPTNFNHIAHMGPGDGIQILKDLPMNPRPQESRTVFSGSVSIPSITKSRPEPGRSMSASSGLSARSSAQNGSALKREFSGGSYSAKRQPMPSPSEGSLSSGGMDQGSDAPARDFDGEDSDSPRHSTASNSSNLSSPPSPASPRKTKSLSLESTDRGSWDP
T2 sequence (P08069 31-1367): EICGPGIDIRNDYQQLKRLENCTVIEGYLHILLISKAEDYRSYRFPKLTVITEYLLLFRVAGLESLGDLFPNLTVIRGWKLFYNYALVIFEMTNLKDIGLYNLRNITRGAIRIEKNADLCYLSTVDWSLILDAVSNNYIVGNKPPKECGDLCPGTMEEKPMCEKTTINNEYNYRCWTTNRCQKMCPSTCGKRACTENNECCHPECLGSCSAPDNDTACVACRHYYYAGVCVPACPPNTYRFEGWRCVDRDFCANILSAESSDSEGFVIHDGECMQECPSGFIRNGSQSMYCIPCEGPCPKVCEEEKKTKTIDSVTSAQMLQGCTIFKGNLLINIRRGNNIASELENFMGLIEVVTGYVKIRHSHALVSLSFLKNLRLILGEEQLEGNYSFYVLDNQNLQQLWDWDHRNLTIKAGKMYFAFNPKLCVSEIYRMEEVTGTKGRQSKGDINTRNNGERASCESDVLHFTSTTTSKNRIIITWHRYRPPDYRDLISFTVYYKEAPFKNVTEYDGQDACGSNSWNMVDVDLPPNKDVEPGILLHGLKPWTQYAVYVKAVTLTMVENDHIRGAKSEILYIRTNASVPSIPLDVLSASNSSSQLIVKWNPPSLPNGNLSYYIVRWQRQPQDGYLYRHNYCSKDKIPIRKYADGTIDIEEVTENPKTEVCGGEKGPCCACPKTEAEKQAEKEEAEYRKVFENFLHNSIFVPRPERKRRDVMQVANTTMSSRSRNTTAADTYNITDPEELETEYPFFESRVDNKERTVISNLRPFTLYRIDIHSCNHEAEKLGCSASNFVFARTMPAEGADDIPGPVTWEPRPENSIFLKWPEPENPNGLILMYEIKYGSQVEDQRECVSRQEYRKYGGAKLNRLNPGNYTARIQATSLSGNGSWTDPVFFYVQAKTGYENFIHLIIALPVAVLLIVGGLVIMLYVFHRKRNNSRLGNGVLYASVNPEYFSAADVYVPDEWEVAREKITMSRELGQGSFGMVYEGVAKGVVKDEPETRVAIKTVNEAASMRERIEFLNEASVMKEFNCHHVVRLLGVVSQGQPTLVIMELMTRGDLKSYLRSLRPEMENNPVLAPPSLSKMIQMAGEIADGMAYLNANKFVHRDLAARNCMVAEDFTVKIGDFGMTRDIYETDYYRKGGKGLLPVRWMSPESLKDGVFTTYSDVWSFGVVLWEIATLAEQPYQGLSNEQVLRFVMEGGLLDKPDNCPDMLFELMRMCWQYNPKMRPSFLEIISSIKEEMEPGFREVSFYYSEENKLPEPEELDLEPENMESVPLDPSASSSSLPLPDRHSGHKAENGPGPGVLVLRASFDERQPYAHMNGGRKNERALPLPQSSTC

Take `CNc1nc(Nc2ccc(C(=O)N3CCC(N4CCOCC4)CC3)c3c2OCO3)nc2[nH]cc(Cl)c12` [Compound 75, (7-((5-chloro-4-(methylamino)-7H-pyrrolo[2,3-d]pyrimidin-2-yl)amino)benzo[d][1,3]dioxol-4-yl)(4-morpholinopiperidin-1-yl)methanone]: the remaining binding at 1 µM at panel of 468 kinases [1] worked out at 100%; at panel of 468 kinases [2], 89%; at panel of 468 kinases [3], 87%; on panel of 468 kinases [4], 100%; on panel of 468 kinases [5], 100%; at panel of 468 kinases [6], 0.25%.

As for `CNc1nc(Nc2ccc(P3(=O)CCN(C4CCOCC4)CC3)cc2OC)nc2[nH]cc(Cl)c12` [Compound 77, 4-(4-((5-chloro-4-(methylamino)-7H-pyrrolo[2,3-d]pyrimidin-2-yl)amino)-3-methoxyphenyl)-1-(tetrahydro-2H-pyran-4-yl)-1,4-azaphosphinane 4-oxide], the remaining binding at 1 µM was found to be 100% at panel of 468 kinases [1]; 100% at panel of 468 kinases [2]; 50% at panel of 468 kinases [3]; 92% at panel of 468 kinases [4]; 100% at panel of 468 kinases [5]; 0.9% at panel of 468 kinases [6].

Regarding `CNc1nc(Nc2ccc(S(=O)(=O)N3CCC(N4CCOCC4)CC3)cc2OC)nc2[nH]cc(Cl)c12` [Compound 12, 5-chloro-N2-(2-methoxy-4-((4-morpholinopiperidin-1-yl)sulfonyl)phenyl)-N4-methyl-7H-pyrrolo[2,3-d]pyrimidine-2,4-diamine], the remaining binding at 1 µM turned out to be 100% at panel of 468 kinases [1]; 100% at panel of 468 kinases [2]; 91% at panel of 468 kinases [3]; 100% on panel of 468 kinases [4]; 100% at panel of 468 kinases [5]; 16% at panel of 468 kinases [6].

Values taken from patent US12479847B2 (DANA-FARBER CANCER INSTITUTE, INC., priority 2019, dated 2025).
